# ChEMBL document CHEMBL4270604, “Hedgehog pathway inhibitors of the acylthiourea and acylguanidine class show antitumor activity on colon cancer in vitro and in vivo” (Eur J Med Chem, 2018)
# pIC50: −log10 of the molar value.
# Columns and labels:
# [1] = Inhibition of hedgehog signaling pathway-mediated differentiation of mouse C3H10T1/2 cells assessed as decrease in SAG-induced ALP activity after 6 days by chemiluminescence-based assay; details: C3H 10T1/2, 144 h
# [2] = test system: LS180; assay: Antiproliferative activity against human LS180 cells after 72 hrs by sulforhodamine-B assay; assay type: functional, cell-based
# [3] = test system: HT-1080; assay: Antiproliferative activity against human HT1080 cells after 72 hrs by sulforhodamine-B assay; assay type: functional, cell-based
# [4] = species on record: Homo sapiens; assay: Substrate activity at recombinant human P-gp in membrane fraction assessed as increase in ATPase activity at 10 uM by luminescent P-gp-Glo assay relative to control
# [5] = target: T1, CYP1A2 (Homo sapiens, UniProt P05177); assay: Inhibition of recombinant human CYP1A2 expressed in insect cell microsomes at 1 uM using Luciferin-ME as substrate preincubated for 10 mins followed by NADPH addition measured after 30 mins by luminometric method; assay type: ADME; details: probe Luciferin-ME
# T1 sequence (P05177 whole entry): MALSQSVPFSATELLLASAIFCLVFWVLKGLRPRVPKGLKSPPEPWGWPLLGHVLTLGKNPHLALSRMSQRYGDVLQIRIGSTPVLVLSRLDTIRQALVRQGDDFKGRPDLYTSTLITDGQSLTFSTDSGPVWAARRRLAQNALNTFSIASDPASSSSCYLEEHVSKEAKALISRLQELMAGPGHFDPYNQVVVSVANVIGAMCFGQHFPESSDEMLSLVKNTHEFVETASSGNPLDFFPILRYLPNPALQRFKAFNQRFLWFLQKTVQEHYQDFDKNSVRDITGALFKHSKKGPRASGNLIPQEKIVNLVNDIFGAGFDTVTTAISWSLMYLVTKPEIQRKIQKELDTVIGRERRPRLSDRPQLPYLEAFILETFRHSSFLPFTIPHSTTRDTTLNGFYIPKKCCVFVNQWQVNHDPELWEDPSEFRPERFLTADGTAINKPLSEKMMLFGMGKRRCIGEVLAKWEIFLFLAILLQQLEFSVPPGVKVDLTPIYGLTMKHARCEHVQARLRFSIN
# [6] = target: T2, CYP3A4 (Homo sapiens, UniProt P08684); assay: Inhibition of recombinant human CYP3A4 expressed in insect cell microsomes at 1 uM using Luciferin-IPA as substrate preincubated for 10 mins followed by NADPH addition measured after 10 mins by luminometric method; assay type: ADME; details: probe Luciferin-IPA
# [7] = target: T1, CYP1A2; assay: Inhibition of recombinant human CYP1A2 expressed in insect cell microsomes at 10 uM using Luciferin-ME as substrate preincubated for 10 mins followed by NADPH addition measured after 30 mins by luminometric method; assay type: ADME; details: probe Luciferin-ME
# [8] = target: T2, CYP3A4; assay: Inhibition of recombinant human CYP3A4 expressed in insect cell microsomes at 5 uM using Luciferin-IPA as substrate preincubated for 10 mins followed by NADPH addition measured after 10 mins by luminometric method; assay type: ADME; details: probe Luciferin-IPA
# [9] = target: T2, CYP3A4; assay: Inhibition of recombinant human CYP3A4 expressed in insect cell microsomes at 10 uM using Luciferin-IPA as substrate preincubated for 10 mins followed by NADPH addition measured after 10 mins by luminometric method; assay type: ADME; details: probe Luciferin-IPA
# [10] = target: T3, CYP2C9 (Homo sapiens, UniProt P11712); assay: Inhibition of recombinant human CYP2C9 expressed in insect cell microsomes at 1 uM using Luciferin-H as substrate preincubated for 30 mins followed by NADPH addition measured after 30 mins by luminometric method; assay type: ADME; details: probe Luciferin-H
# [11] = target: T3, CYP2C9; assay: Inhibition of recombinant human CYP2C9 expressed in insect cell microsomes at 5 uM using Luciferin-H as substrate preincubated for 30 mins followed by NADPH addition measured after 30 mins by luminometric method; assay type: ADME; details: probe Luciferin-H
# [12] = target: T3, CYP2C9; assay: Inhibition of recombinant human CYP2C9 expressed in insect cell microsomes at 10 uM using Luciferin-H as substrate preincubated for 30 mins followed by NADPH addition measured after 30 mins by luminometric method; assay type: ADME; details: probe Luciferin-H
# [13] = target: T4, CYP2C19 (Homo sapiens, UniProt P33261); assay: Inhibition of recombinant human CYP2C19 expressed in insect cell microsomes at 5 uM using Luciferin-H EGE as substrate preincubated for 20 mins followed by NADPH addition measured after 30 mins by luminometric method; assay type: ADME; details: probe Luciferin-H EGE
# [14] = target: T4, CYP2C19; assay: Inhibition of recombinant human CYP2C19 expressed in insect cell microsomes at 10 uM using Luciferin-H EGE as substrate preincubated for 20 mins followed by NADPH addition measured after 30 mins by luminometric method; assay type: ADME; details: probe Luciferin-H EGE
# [15] = target: CYP2D6 (Homo sapiens, UniProt P10635); assay: Inhibition of recombinant human CYP2D6 expressed in insect cell microsomes at 5 uM using Luciferin-ME EGE as substrate preincubated for 30 mins followed by NADPH addition measured after 45 mins by luminometric method; assay type: ADME; details: probe Luciferin-ME EGE
# [16] = target: Cytochrome P450 3A4 (Homo sapiens, UniProt P08684); assay: Inhibition of recombinant human CYP3A4 expressed in insect cell microsomes using Luciferin-IPA as substrate preincubated for 10 mins followed by NADPH addition measured after 10 mins by luminometric method; assay type: ADME; details: recombinant enzyme
# [17] = Tmax in CD1 mouse at 200 mg/kg, po administered as single dose by HPLC-MS/MS analysis; assay type: ADME, organism-based; details: in vivo
# [18] = AUClast in CD1 mouse at 200 mg/kg, po administered as single dose by HPLC-MS/MS analysis; assay type: ADME, organism-based; parameters: dose 200 mg/kg, time 0 - last, route oral; details: in vivo
# [19] = test system: Mus musculus; assay: Tlast in CD1 mouse at 200 mg/kg, po administered as single dose by HPLC-MS/MS analysis; assay type: ADME, organism-based; details: in vivo
# [20] = Apparent clearance in CD1 mouse at 200 mg/kg, po administered as single dose by HPLC-MS/MS analysis; assay type: ADME, organism-based; details: in vivo
# [21] = target: T5, Coelenterazine h 2-monooxygenase (Renilla reniformis, UniProt P27652); assay: Effect on Renilla reniformis luciferase; assay type: ADME
# T5 sequence (P27652 whole entry): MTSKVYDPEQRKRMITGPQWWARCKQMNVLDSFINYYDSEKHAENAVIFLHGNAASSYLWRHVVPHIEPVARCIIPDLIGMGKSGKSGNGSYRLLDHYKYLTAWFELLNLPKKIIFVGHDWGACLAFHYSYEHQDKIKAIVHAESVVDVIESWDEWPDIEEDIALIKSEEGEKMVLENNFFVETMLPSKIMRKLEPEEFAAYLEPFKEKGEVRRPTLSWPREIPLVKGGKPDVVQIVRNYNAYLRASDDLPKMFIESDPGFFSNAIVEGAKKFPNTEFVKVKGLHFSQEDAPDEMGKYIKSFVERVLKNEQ
# [22] = in vitro; details: human, Caco-2
# Description: Apparent permeability of the compound from apical to basolateral side in human Caco2 cells after 120 mins by LC-MS/MS analysis
# [23] = in vitro; details: human, Caco-2; remark: listed apart in the source
# Description: Apparent permeability of the compound from basolateral to apical side in human Caco2 cells assessed as drug recovery after 120 mins by LC-MS/MS analysis
# [24] = in vitro; details: human, Caco-2; remark: listed apart in the source
# Description: Efflux ratio of apparent permeability from basolateral to apical over apical to basolateral side in human Caco2 cells after 120 mins by LC-MS/MS analysis
# [25] = Inhibition of hedgehog signaling pathway in mouse Light2 cells stimulated with 100 nM SAG after 30 hrs by Gli-firefly luciferase reporter gene assay
# [26] = species on record: Mus musculus; assay: as above
# T2 sequence (P08684 whole entry): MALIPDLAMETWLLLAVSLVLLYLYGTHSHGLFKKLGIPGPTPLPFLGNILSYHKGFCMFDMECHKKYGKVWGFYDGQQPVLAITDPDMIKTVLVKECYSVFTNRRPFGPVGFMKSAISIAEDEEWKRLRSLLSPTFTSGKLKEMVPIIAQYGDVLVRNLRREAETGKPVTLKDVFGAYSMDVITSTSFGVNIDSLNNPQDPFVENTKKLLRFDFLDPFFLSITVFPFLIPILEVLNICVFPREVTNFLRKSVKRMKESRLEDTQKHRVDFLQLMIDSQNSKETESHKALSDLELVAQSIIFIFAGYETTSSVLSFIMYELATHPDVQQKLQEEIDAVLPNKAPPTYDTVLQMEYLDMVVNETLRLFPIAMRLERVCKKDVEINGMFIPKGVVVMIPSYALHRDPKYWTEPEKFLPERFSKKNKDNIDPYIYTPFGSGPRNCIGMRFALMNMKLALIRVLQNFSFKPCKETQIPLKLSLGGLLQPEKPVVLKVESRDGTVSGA
# T3 sequence (P11712 whole entry): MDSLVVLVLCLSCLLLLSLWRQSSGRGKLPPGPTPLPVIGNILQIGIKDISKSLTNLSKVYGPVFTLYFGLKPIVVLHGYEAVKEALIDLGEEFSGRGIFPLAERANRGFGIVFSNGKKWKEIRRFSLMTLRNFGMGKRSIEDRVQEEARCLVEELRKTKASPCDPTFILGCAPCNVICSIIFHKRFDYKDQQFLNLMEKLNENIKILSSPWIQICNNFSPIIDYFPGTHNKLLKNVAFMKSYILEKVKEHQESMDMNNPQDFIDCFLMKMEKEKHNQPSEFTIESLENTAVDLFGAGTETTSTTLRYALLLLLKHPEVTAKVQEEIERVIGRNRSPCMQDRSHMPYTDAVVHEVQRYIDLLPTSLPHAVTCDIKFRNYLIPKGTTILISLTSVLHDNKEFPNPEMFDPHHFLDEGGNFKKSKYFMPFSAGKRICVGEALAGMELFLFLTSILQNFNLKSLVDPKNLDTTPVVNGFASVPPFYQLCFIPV
# T4 sequence (P33261 whole entry): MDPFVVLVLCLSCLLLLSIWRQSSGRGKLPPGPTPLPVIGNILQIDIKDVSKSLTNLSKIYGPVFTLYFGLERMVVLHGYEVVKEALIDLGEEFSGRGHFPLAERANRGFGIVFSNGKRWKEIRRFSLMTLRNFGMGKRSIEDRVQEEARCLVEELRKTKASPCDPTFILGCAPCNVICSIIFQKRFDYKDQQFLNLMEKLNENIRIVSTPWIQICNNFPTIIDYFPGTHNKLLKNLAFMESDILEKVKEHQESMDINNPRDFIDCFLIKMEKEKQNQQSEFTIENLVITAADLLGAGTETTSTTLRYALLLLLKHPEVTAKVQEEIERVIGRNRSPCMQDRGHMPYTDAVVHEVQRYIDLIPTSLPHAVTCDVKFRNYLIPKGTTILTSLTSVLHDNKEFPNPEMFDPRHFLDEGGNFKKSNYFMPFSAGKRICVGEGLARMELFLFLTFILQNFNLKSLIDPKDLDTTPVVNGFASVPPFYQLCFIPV
# Chain of Cytochrome P450 3A4 (P08684 whole entry): as the sequence (P08684 whole entry) above
# Chain of CYP2D6 (P10635 whole entry): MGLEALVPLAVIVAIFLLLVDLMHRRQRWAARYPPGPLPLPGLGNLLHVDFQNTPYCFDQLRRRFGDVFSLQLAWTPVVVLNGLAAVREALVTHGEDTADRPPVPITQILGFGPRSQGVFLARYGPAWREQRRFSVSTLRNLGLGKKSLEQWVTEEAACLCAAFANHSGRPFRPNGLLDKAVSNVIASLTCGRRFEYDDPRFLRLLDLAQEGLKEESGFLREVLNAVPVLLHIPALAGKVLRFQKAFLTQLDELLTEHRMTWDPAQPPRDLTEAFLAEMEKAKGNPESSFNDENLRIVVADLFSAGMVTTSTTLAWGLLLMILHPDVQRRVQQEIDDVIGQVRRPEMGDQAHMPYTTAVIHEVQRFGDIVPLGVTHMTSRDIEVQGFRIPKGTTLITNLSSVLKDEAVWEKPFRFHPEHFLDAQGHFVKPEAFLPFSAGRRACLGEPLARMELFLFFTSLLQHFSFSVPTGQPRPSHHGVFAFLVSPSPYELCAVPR
smiles,measurement,setting,value
COc1cc(C(=O)NC(=N)Nc2ccc(C)c(NC(=O)c3ccc(-c4ccc(F)cc4)cc3)c2)cc(OC)c1OC.Cl,pIC50,[1],7.15
same,Activity,[2],Dose-dependent effect
same,pIC50,"[2]; LS180, 72 h",5.09
same,Activity,[3],Dose-dependent effect
same,pIC50,"[3]; HT-1080, 72 h",4.70
same,fold change (FC),[4],2.3
same,"inhibition at 0.5 h, 1 µM",[5],46%
same,"inhibition at 10 min, 1 µM",[6],52%
same,"inhibition at 0.5 h, 10 µM",[7],59%
same,"inhibition at 10 min, 5 µM",[8],78%
same,"inhibition at 10 min, 10 µM",[9],82%
same,"inhibition at 0.5 h, 1 µM",[10],63%
same,"inhibition at 0.5 h, 5 µM",[11],76%
same,"inhibition at 0.5 h, 10 µM",[12],79%
same,"inhibition at 0.5 h, 5 µM",[13],76%
same,"inhibition at 0.5 h, 10 µM",[14],76%
same,"inhibition at 0.75 h, 5 µM",[15],25%
same,inhibition (INH),[16],Dose-dependent effect
same,Tmax,[17],1 h
same,AUC(0-t),[18],223 µg·h/mL
same,Tlast,[19],24 h
same,CL/F,[20],14.9 mL/min/kg
same,Activity,[21],Not Active
same,Papp A→B at 2 h,[22],0.366 ×10⁻⁶ cm/s
same,recovery at 2 h,[23],30.6%
same,efflux ratio at 2 h,[24],1.01
same,pIC50,[25],7.30
same,inhibition,[26],Dose-dependent effect
